Patent US4965283A, “Amino acid esters, process for the preparation thereof and use thereof” (Dr. Willmar Schwabe GmbH & Co., priority 1987, dated 1990)
Counter-ions that a name gives are not always drawn. Like-named read-outs stand apart in the source and are kept apart here.

Test system: maximum electroshock spasm (MES), extensor spasm in mice
Assay: MES test (maximum electroshock; inhibition of extensor spasm)
Format: in vivo, male mice (NMRI)
Conditions: oral; for protective action [%] after 1 hr / protective action [%] after 3 hrs / responders at 100 mg/kg / responders at 50 mg/kg: n = 10; for ED 50 values / ED 50 values (estimated values) / ED50: MES test, 1 hour after administration; for ED 50 values (estimated values): * estimated from several tests with different dosages; for responders at 100 mg/kg / ED50 / responders at 50 mg/kg: Mus musculus, po; for ED50: read-out: ED 50 values
Text: For the determination of the anticonvulsive/anti-epileptic activity of the substances according to the present invention the method described by E. A. Swinyard et al., J. Pharmacol. exp. Therapeut. 106, 319-330 (1952) and by L. A. Woodbury et al., Arch. int. Pharmacodyn., 92, 97-107 (1952) was used. To male mice (NMRI) with a body weight of 20-25 g via corneal electrodes, an alternating current of 50 Hz and 50 mA is applied for 0.2 sec. (HSE-shock stimulation apparatus; type 207). The maximum electroshock spasm (MES) consists of a tonic extension of the rear extremities, the clonic twitch and loss of consciousness. The activity criterion is taken as being the inhibition of the extensor spasm by the substances according to the present invention. Before the experiments the mice had free access to feed and water. The test substances were administered orally as suspensions in 0.2% agar by stomach tubes; the control animals received adequate volumes of agar. 1 hour and 3 hours after administration the test for protective action against MES was carried out.
As percentage action the percentage proportion of those animals which in the MES test were protected 100% against the extensor spasm is given. 10 animals were used per test.
The ED 50 values were determined according to Lichtfield and Wilcoxon J. Pharmacol. exp. Therapeut. 96, 99 (1949) in each case with 4 to 5 animal groups each of 8-10 animals per dosage stage.

[1] = 50 mg/kg, 1 hr after administration
[2] = 50 mg/kg, 3 hrs after administration
[3] = 1 h, 100 mg/kg, 1 hr after administration, read-out: protective action [%] after 1 hr
[4] = 3 h, 100 mg/kg, 3 hrs after administration, read-out: protective action [%] after 3 hrs
[5] = 1 h, 50 mg/kg, 1 hr after administration, read-out: protective action [%] after 1 hr
[6] = 3 h, 50 mg/kg, 3 hrs after administration, read-out: protective action [%] after 3 hrs
[7] = 100 mg/kg, 1 hr after administration
[8] = 100 mg/kg, 3 hrs after administration

Row | Compound | ED 50 values (estimated values) | responders at 100 mg/kg [3] | responders at 100 mg/kg [4] | ED50 (1 h) | responders at 50 mg/kg [5] | also measured
1 | COC1=CC(=O)OC1C(OC(=O)CNC(=O)C(C)(C)C)c1ccccc1Cl (single isomer, unassigned; (+)) [Example 152, (+)-threo-5-[2-chlorophenyl-(N-pivaloylglycyloxy)-methyl]-4-methoxy-2(5H)-furanone] | – | – | – | – | – | protective action [%] after 1 hr [1]: 100%; protective action [%] after 3 hrs [2]: 90%; ED 50 values: 16.3 mg/kg
2 | COC1=CC(=O)OC1C(OC(=O)[C@@H](N)c1ccccc1)c1ccccc1Cl (single isomer, unassigned) [117 B] | – | – | – | – | – | protective action [%] after 1 hr [1]: 90%; protective action [%] after 3 hrs [2]: 0%; ED 50 values (60 min): 25.3 mg/kg
3 | COC1=CC(=O)OC1C(OC(=O)[C@@H]1CCCN1C(C)=O)c1ccccc1Cl (single isomer, unassigned) [107 A] | 10 to 15 mg/kg | 100% | 60% | – | – | –
4 | COC1=CC(=O)O[C@H]1[C@H](OC(=O)CN)c1ccc(Cl)cc1Cl (relative stereo) [Example 131, threo-5-[2,4-dichlorophenyl-(glycyloxy)-methyl]-4-methoxy-2(5H)-furanone hydrochloride] | – | – | – | 54.5 mg/kg | – | –
5 | COC1=CC(=O)O[C@@H]1[C@@H](OC(=O)[C@@H]1CCCN1)c1ccccc1Cl [104 A] | – | – | – | – | 100% | responders at 50 mg/kg [6]: 100%
6 | COC1=CC(=O)OC1C(OC(=O)[C@H](CCSC)NC(C)=O)c1ccccc1Cl (single isomer, unassigned) [124 A] | 25 to 35 mg/kg | 100% | 20% | – | – | –
7 | COC1=CC(=O)O[C@H]1[C@H](OC(=O)CN)c1ccccc1 (relative stereo) [Example 105, threo-5-[glycyloxy-(phenyl)-methyl]-4-methoxy-2(5H)-furanone hydrobromide] | – | 70% | 0% | 87.5 mg/kg | – | –
8 | COC1=CC(=O)OC1C(OC(=O)[C@@H](N)CCC(=O)O)c1ccccc1Cl (single isomer, unassigned) [123 A] | – | – | – | – | 70% | responders at 50 mg/kg [6]: 20%
9 | COC1=CC(=O)OC1C(OC(=O)[C@@H]1CCCN1)c1cc(Cl)ccc1Cl (single isomer, unassigned) [137 A] | – | – | – | – | 100% | responders at 50 mg/kg [6]: 100%
10 | COC1=CC(=O)O[C@H]1[C@H](OC(=O)C1(N)CCCCC1)c1ccccc1Cl (relative stereo) [Example 157, threo-5-[1-amino-1-cyclohexylcarbonyloxy-(2-chlorophenyl)-methyl]-4-methoxy-2(5H)-furanone hydrobromide] | – | 100% | 40% | 27.5 mg/kg | – | –
11 | COC1=CC(=O)O[C@H]1[C@H](OC(=O)CCCN)c1ccccc1Cl (relative stereo) [Example 114, threo-5-[4-aminobutanoyloxy-(2-chlorophenyl)-methyl]-4-methoxy-2(5H)-furanone hydrochloride] | – | – | – | 40 mg/kg | – | protective action [%] after 3 hrs (50 mg/kg, 3 hrs after administration, hydrochloride): 30%
12 | COC1=CC(=O)OC1C(OC(=O)[C@@H]1CCCN1)c1ccccc1 (stereo partly shown) [110 A] | 40 to 50 mg/kg | 100% | 0% | – | – | –
13 | COC1=CC(=O)OC1C(OC(=O)[C@@H]1CCCN1)c1ccccc1C(F)(F)F (stereo partly shown) [139 B] | – | 40% | 10% | – | – | –
14 | COC1=CC(=O)OC1C(OC(=O)CNC(C)=O)c1ccccc1Cl (single isomer, unassigned; (+)) [Example 150] | – | – | – | – | – | protective action [%] after 1 hr [1]: 100%; protective action [%] after 3 hrs [2]: 100%; ED 50 values: 14.4 mg/kg
15 | COC1=CC(=O)OC1C(OC(=O)[C@@H](N)c1ccccc1)c1ccccc1Cl (single isomer, unassigned) [117 A] | – | – | – | 16 mg/kg | 100% | protective action [%] after 3 hrs [2]: 100%
16 | COC1=CC(=O)O[C@@H]1[C@@H](OC(=O)[C@@H]1CCCN1)c1ccccc1Cl [103 A] | – | 100% | 100% | 10.7 mg/kg | – | –
17 | COC1=CC(=O)O[C@H]1[C@H](OC(=O)CN)c1ccccc1Cl (relative stereo) [Example 111, threo-5-[2-chlorophenyl-(glycyloxy)-methyl]-4-methoxy-2(5H)-furanone hydrobromide] | – | – | – | 24.2 mg/kg | 100% | responders at 50 mg/kg [6]: 80%

Row | Compound | ED 50 values (estimated values) | responders at 100 mg/kg [3] | responders at 100 mg/kg [4] | ED50 (1 h) | responders at 50 mg/kg [5] | also measured
18 | COC1=CC(=O)O[C@H]1[C@H](OC(=O)[C@@H]1CCCN1)c1ccccc1Cl [104 B] | – | – | – | – | – | protective action [%] after 1 hr [7]: 60%; protective action [%] after 3 hrs [8]: 0%; ED 50 values (60 min): 105 mg/kg
19 | COC1=CC(=O)OC1C(OC(=O)[C@@H]1CCCN1C(=O)OCc1ccccc1)c1cc(Cl)ccc1Cl (single isomer, unassigned) [136 A] | 40 to 50 mg/kg | – | – | – | 60% | responders at 50 mg/kg [6]: 50%
20 | COC1=CC(=O)O[C@H]1[C@H](OC(=O)CNC(C)=O)c1ccc(Cl)cc1Cl (relative stereo) [Example 132, threo-5-[N-acetylglycyloxy-(2,4-dichlorophenyl)-methyl]-4-methoxy-2(5H)-furanone] | – | 20% | 50% | – | – | –
21 | COC1=CC(=O)OC1C(OC(=O)[C@@H]1CCCN1)c1ccc(Cl)cc1Cl (single isomer, unassigned) [135 A] | 65 to 75 mg/kg | 100% | 100% | – | – | –
22 | COC1=CC(=O)OC1C(OC(=O)[C@H](Cc1ccccc1)N=C(C)C)c1ccccc1Cl (single isomer, unassigned) [121 A] | – | – | – | – | 100% | responders at 50 mg/kg [6]: 90%
23 | COC1=CC(=O)OC1C(OC(=O)[C@H](C)N)c1ccc(Cl)cc1Cl (stereo partly drawn) [Example 133, threo-5-[L-alanyloxy-(2,4-dichlorophenyl)-methyl]-4-methoxy-2(5H)-furanone hydrobromide] | 60 to 70 mg/kg | 100% | 100% | – | – | –
24 | COC1=CC(=O)OC1C(OC(=O)[C@@H]1CCCN1C(=O)OCc1ccccc1)c1ccccc1C(F)(F)F (single isomer, unassigned) [138 A] | – | 30% | 20% | – | – | –
25 | COC1=CC(=O)O[C@H]1[C@H](OC(=O)CNC(C)=O)c1ccccc1Cl (relative stereo) [Example 106, threo-5-[N-acetylglycyloxy-(2-chlorophenyl)-methyl]-4-methoxy-2(5H)-furanone] | – | – | – | 23.1 mg/kg | 100% | responders at 50 mg/kg [6]: 70%
26 | COC1=CC(=O)OC1C(OC(=O)[C@H](N)c1ccccc1)c1ccccc1Cl (stereo partly shown) [119 B] | – | – | – | 37.6 mg/kg | 100% | responders at 50 mg/kg [6]: 20%
27 | COC1=CC(=O)O[C@H]1[C@H](OC(=O)[C@@H]1CCCN1)c1ccccc1Cl [103 B] | – | 50% | 0% | 95 mg/kg | – | –
28 | COC1=CC(=O)OC1C(OC(=O)[C@@H](N)c1ccccc1)c1ccccc1 (single isomer, unassigned) [108 A] | 70 to 80 mg/kg | 90% | 0% | – | – | –
29 | COC1=CC(=O)O[C@H]1[C@H](OC(=O)CN)c1ccc(Cl)cc1Cl (relative stereo) [Example 130, threo-5-[2,4-dichlorophenyl-(glycyloxy)-methyl]-4-methoxy-2(5H)-furanone hydrobromide] | 40 to 50 mg/kg | 100% | 100% | – | – | –
30 | COC1=CC(=O)O[C@H]1[C@H](OC(=O)CCCNC(C)=O)c1ccccc1Cl (relative stereo) [Example 115, threo-5-[4-(N-acetylamino)-butanoyloxy-(2-chlorophenyl)methyl]-4-methoxy-2(5H)-furanone] | 30 to 40 mg/kg | 100% | 100% | – | – | –
31 | COC1=CC(=O)OC1C(OC(=O)[C@@H](N)CCC(N)=O)c1ccccc1Cl (single isomer, unassigned) [122 A] | 15 to 20 mg/kg | – | – | – | 100% | responders at 50 mg/kg [6]: 100%
32 | Br.COC1=CC(=O)OC1C(OC(=O)CN)c1ccccc1Cl (single isomer, unassigned; (+)) [Example 151, (+)-threo-5-[2-chlorophenyl-(glycyloxy)-methyl]-4-methoxy-2(5H)-furanone hydrobromide] | – | – | – | – | – | protective action [%] after 1 hr [1]: 100%; protective action [%] after 3 hrs [2]: 100%; ED 50 values: 12.2 mg/kg
33 | Br.COC1=CC(=O)OC1C(OC(=O)CN)c1ccccc1Cl (single isomer, unassigned; (-)) [Example 153] | – | – | – | – | – | protective action [%] after 1 hr [7]: 40%; protective action [%] after 3 hrs [8]: 0%
